Test results: the supplement of paper PMC8882468

Experiments:
Assay in all cases: CTG-3D luminescence at 96 h relative to day-0 seeding control (ratio to day 0); higher = more growth / less cytotoxicity; PDxO 3D drug screen, 96 h, CTG-3D normalised to day-0 seeding control.
HCI-002 = tested on: HCI-002 (organoid from a triple-negative breast cancer xenograft)
HCI-012 = tested on: HCI-012 (organoid from a breast cancer xenograft)
HCI-023 = tested on: HCI-023 (organoid from a triple-negative breast cancer xenograft)
HCI-024 = tested on: HCI-024 (organoid from a breast cancer xenograft)
HCI-025 = tested on: HCI-025 (organoid from a breast cancer xenograft)

CC[C@H](NC(=O)[C@H](C)NC)C(=O)N1C[C@@H](O)C[C@H]1Cc1c(-c2[nH]c3cc(F)ccc3c2C[C@@H]2C[C@H](O)CN2C(=O)[C@H](CC)NC(=O)[C@H](C)NC)[nH]c2cc(F)ccc12 [birinapant]
CTG-3D luminescence at 96 h
Settings	12.5 pM	0.00025 µM	0.005 µM	0.1 µM	1 µM	10 µM	100 µM	625 fM
HCI-002, days in culture: 62	3.08	2.09	2.65	1.51	1.03	0.891	0.234	2.96
HCI-002, days in culture: 82	3	2.82	1.96	1.59	0.689	0.62	0.148	3.06
HCI-002, days in culture: 91	4.14	3.62	3.4	2.64	1.62	1.38	0.408	4.22
HCI-002, days in culture: 191	2.67	2.28	2.58	1.73	1.31	0.959	0.188	2.59
HCI-002, days in culture: 209	2.21	2.16	1.88	0.886	0.527	0.44	0.127	2.18
HCI-002, days in culture: 227	6.23	5.92	5.21	2.45	1.39	1.41	-0.1	6.13
HCI-012, days in culture: 143	1.9	1.6	0.979	1.05	0.841	1.03	0.0063	1.91
HCI-012, days in culture: 162	2.25	2.01	0.325	0.156	0.152	0.249	0.00568	2.83
HCI-012, days in culture: 201	2.65	2.24	1.46	0.262	0.102	0.277	0.0538	1.77
HCI-023, days in culture: 111	1.31	0.929	0.368	0.0512	0.0433	0.0326	0.0111	1.35
HCI-023, days in culture: 128	1.21	1.13	0.23	0.0897	0.044	0.0472	0.006598	1.75
HCI-024, days in culture: 105	1.4	1.17	0.375	0.175	0.139	0.177	0.0272	1.84
HCI-024, days in culture: 122	1.7	1.71	0.726	0.194	0.134	0.237	0.0303	2.58
HCI-024, days in culture: 163	1.8	1.36	0.525	0.315	0.255	0.23	0.0734	2.09
HCI-025, days in culture: 172	2.24	1.37	1.16	0.15	0.319	0.166	0.0157	1.82
HCI-025, days in culture: 209	1.87	1.95	1.01	0.628	0.388	0.374	0.241	1.9
HCI-025, days in culture: 218	1.84	1.78	1.79	1.23	0.859	0.811	0.542	1.83

CCN1CCN(Cc2ccc(Nc3ncc(F)c(-c4cc(F)c5nc(C)n(C(C)C)c5c4)n3)nc2)CC1 [abemaciclib]
CTG-3D luminescence at 96 h
Settings	12.5 pM	0.00025 µM	0.005 µM	0.1 µM	1 µM	10 µM	100 µM	625 fM
HCI-002, days in culture: 62	2.66	2.58	3.14	1.73	1.79	0.212	0.0177	2.98
HCI-002, days in culture: 82	3.15	2.81	2.24	1.98	1.8	0.0326	0.0147	2.83
HCI-002, days in culture: 91	3.78	3.22	2.89	1.68	2.17	1.95	0.0268	3.9
HCI-002, days in culture: 191	2.72	2.89	3.01	1.89	2.34	0.748	0.018	2.57
HCI-002, days in culture: 209	2.24	2.35	2.4	1.36	1.49	0.0253	0.014	2.36
HCI-002, days in culture: 227	5.48	5.17	4.76	2.91	3.24	0.0659	0.0285	5.64
HCI-012, days in culture: 143	2.22	2.41	2.02	2.72	1.59	0.427	0.0151	1.94
HCI-012, days in culture: 162	2.88	2.54	2.02	3.34	1.83	1.5	0.0215	3.16
HCI-012, days in culture: 201	2.81	2.22	1.75	1.73	2.31	1.47	0.0218	1.65
HCI-023, days in culture: 111	1.62	1.22	1.3	1.11	0.658	0.377	0.00981	1.51
HCI-023, days in culture: 128	1.77	1.494	1.47	1.52	0.984	1.15	0.0139	1.84
HCI-024, days in culture: 105	1.51	1.33	1.28	1.48	1.25	0.994	0.0179	1.87
HCI-024, days in culture: 122	2.26	2.43	1.7	1.89	1.62	2.1	0.0233	3.21
HCI-024, days in culture: 163	1.45	2.01	1.71	2.45	1.94	1.38	0.0196	1.89
HCI-025, days in culture: 172	3.01	1.55	3.2	2.1	2.55	1.91	0.0181	2.18
HCI-025, days in culture: 209	2.03	1.8	1.98	2.2	2.46	1.27	0.0124	1.49
HCI-025, days in culture: 218	1.37	1.71	1.83	1.55	1.46	1.84	0.0142	1.33

Cc1nc(-c2cn3c(n2)-c2ccc(-c4cnn(C(C)(C)C(N)=O)c4)cc2OCC3)n(C(C)C)n1 [taselisib]
CTG-3D luminescence at 96 h
Settings	12.5 pM	0.00025 µM	0.005 µM	0.1 µM	1 µM	10 µM	100 µM	625 fM
HCI-002, days in culture: 62	2.78	2.75	2.69	2.06	1.75	1.12	0.0194	3.01
HCI-002, days in culture: 82	2.76	2.9	2.23	2.39	1.79	1.08	0.0159	3.2
HCI-002, days in culture: 91	3.66	3.28	2.4	2.4	1.64	1.32	0.0254	3.59
HCI-002, days in culture: 191	2.84	2.45	2.55	2.13	2.1	0.981	0.137	2.84
HCI-002, days in culture: 209	2.15	2.3	2.09	1.75	1.5	0.726	0.0139	2.45
HCI-002, days in culture: 227	4.99	5.28	4.54	3.54	2.79	1.69	0.0558	5.91
HCI-012, days in culture: 143	2.1	2.32	2.04	1.89	1.21	0.59	0.046	1.82
HCI-012, days in culture: 162	2.56	2.08	1.72	2.19	1.1	0.703	0.0208	2.93
HCI-012, days in culture: 201	2.64	2	1.44	1.62	1.56	0.385	0.0205	1.75
HCI-023, days in culture: 111	1.53	1.41	1.4	0.966	0.707	0.842	0.0187	1.35
HCI-023, days in culture: 128	1.9392	1.52	1.88	1.68	1.2	1.18	0.33	1.86
HCI-024, days in culture: 105	1.47	1.44	1.54	1.77	1.34	0.981	0.403	1.9
HCI-024, days in culture: 122	2.21	2.49	1.79	1.88	1.6	1.81	0.258	2.63
HCI-024, days in culture: 163	1.36	2.13	1.7	2.36	2.06	1.62	0.316	2
HCI-025, days in culture: 172	3.15	1.96	3.8	1.36	0.93	0.235	0.0865	1.92
HCI-025, days in culture: 209	1.6	2.39	1.79	1.16	0.455	0.267	0.0164	1.64
HCI-025, days in culture: 218	1.42	1.87	1.83	0.886	0.193	0.296	0.0322	1.54
